Results reported in ChEMBL document CHEMBL1140826, “Synthesis of benzamide derivatives as TRPV1 antagonists” (Bioorg Med Chem Lett, 2008).
Values joined by “and” are separate entries in the source; they are usually repeats but may differ in a detail not shown here. Equal values may be shown once.

Test system: not listed separately
Test: Half life in po dosed rat administered through 0.1% MC solution
Assay type: ADME, organism-based
Settings: in vivo

SMILES	half-life [h]
Cn1c2c(c3cc(O)ccc31)C(CNC(=O)c1ccc(OC(F)(F)F)cc1)CCC2 (configuration not stated)	1.2

Test system: Rattus norvegicus
Test: Reduction of rectal temperature in rat CCI model at 100 mg/kg, ip
Assay type: functional
Settings: route intraperitoneal

SMILES	inhibition in vivo at 100 mg/kg [%]
CC(C)(C)c1ccc(NC(=O)c2ccc(OC(F)(F)C(F)F)cc2)cc1	59

Test system: not listed separately
Test: Half life in iv dosed rat
Assay type: ADME, organism-based
Settings: in vivo

SMILES	half-life [h]
Cn1c2c(c3cc(O)ccc31)C(CNC(=O)c1ccc(OC(F)(F)F)cc1)CCC2 (configuration not stated)	2.1

Species on record: Mus musculus
Test: Effect on capsaicin-induced licking in mouse
Assay type: functional
Settings: not given

SMILES	ED50 [mg/kg]
CC(C)(C)c1ccc(NC(=O)c2ccc(OC(F)(F)C(F)F)cc2)cc1	3.8

Species on record: Mus musculus
Test: Effect on capsaicin-induced hypothermia in mouse
Assay type: functional
Settings: not given

SMILES	ED50 [mg/kg]
CC(C)(C)c1ccc(NC(=O)c2ccc(OC(F)(F)C(F)F)cc2)cc1	4.5

Biological target: Transient receptor potential cation channel subfamily V member 1 (Rattus norvegicus, UniProt O35433)
Sequence (O35433 whole entry): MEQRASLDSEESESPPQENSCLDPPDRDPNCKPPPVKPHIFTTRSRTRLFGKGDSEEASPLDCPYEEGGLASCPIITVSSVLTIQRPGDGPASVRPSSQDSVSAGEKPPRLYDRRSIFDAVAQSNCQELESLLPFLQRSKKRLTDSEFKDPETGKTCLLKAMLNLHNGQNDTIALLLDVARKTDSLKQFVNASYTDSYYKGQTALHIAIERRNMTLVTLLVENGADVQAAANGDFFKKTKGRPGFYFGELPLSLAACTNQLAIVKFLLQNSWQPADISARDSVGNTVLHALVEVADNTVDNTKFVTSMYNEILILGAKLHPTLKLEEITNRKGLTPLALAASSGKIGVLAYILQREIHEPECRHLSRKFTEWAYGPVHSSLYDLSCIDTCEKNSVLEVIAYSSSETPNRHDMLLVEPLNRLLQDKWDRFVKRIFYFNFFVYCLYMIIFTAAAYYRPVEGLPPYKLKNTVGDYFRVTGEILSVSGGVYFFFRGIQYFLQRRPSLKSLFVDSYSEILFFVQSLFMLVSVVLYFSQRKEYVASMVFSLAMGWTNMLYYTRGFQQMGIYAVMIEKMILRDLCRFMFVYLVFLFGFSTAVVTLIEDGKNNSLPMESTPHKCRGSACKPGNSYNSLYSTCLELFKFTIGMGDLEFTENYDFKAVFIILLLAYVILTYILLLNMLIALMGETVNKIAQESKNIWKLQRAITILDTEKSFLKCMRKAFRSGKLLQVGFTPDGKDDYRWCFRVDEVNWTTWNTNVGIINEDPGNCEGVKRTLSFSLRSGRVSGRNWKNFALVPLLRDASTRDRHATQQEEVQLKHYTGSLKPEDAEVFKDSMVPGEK
Test: Antagonist activity at rat TRPV1 assessed as inhibition of capsaicin-induced calcium mobilization
Assay type: functional
Settings: not given

SMILES	IC50 [µM]
COc1ccc2[nH]cc(C(C)CNC(=O)c3ccc(OC(F)(F)F)cc3)c2c1 (configuration not stated)	5.2
Cn1c2c(c3cc(O)ccc31)C(CNC(=O)c1ccc(OC(F)(F)F)cc1)CCC2 (configuration not stated)	0.41
CC(C)(C)c1ccc(NC(=O)c2ccc(OC(F)(F)C(F)F)cc2)cc1	0.26
CC(CNC(=O)c1ccc(OC(F)(F)F)cc1)c1ccc(O)c2ccc(O)cc12 (racemic)	0.044

Test system: not listed separately
Test: Oral bioavailability in rat administered through 0.1% MC solution
Assay type: ADME, organism-based
Settings: in vivo

SMILES	bioavailability [%]
Cn1c2c(c3cc(O)ccc31)C(CNC(=O)c1ccc(OC(F)(F)F)cc1)CCC2 (configuration not stated)	0.7

Test system: not listed separately
Test: Oral bioavailability in rat administered through PEG400
Assay type: ADME, organism-based
Settings: in vivo

SMILES	bioavailability [%]
Cn1c2c(c3cc(O)ccc31)C(CNC(=O)c1ccc(OC(F)(F)F)cc1)CCC2 (configuration not stated)	30.2

Test system: Mus musculus
Test: Reduction of rectal temperature in mouse CCI model at 100 mg/kg, ip
Assay type: functional
Settings: route intraperitoneal

SMILES	inhibition in vivo at 100 mg/kg [%]
CC(C)(C)c1ccc(NC(=O)c2ccc(OC(F)(F)C(F)F)cc2)cc1	59

Test system: Rattus norvegicus
Test: Effect on carrageenan-induced thermal hyperalgesia in rat at 30 mg/kg, ip
Assay type: functional
Settings: route intraperitoneal

SMILES	inhibition in vivo at 30 mg/kg [%]
CC(C)(C)c1ccc(NC(=O)c2ccc(OC(F)(F)C(F)F)cc2)cc1	52

Biological target: Transient receptor potential cation channel subfamily V member 1 (Homo sapiens, UniProt Q8NER1)
Sequence (Q8NER1 whole entry): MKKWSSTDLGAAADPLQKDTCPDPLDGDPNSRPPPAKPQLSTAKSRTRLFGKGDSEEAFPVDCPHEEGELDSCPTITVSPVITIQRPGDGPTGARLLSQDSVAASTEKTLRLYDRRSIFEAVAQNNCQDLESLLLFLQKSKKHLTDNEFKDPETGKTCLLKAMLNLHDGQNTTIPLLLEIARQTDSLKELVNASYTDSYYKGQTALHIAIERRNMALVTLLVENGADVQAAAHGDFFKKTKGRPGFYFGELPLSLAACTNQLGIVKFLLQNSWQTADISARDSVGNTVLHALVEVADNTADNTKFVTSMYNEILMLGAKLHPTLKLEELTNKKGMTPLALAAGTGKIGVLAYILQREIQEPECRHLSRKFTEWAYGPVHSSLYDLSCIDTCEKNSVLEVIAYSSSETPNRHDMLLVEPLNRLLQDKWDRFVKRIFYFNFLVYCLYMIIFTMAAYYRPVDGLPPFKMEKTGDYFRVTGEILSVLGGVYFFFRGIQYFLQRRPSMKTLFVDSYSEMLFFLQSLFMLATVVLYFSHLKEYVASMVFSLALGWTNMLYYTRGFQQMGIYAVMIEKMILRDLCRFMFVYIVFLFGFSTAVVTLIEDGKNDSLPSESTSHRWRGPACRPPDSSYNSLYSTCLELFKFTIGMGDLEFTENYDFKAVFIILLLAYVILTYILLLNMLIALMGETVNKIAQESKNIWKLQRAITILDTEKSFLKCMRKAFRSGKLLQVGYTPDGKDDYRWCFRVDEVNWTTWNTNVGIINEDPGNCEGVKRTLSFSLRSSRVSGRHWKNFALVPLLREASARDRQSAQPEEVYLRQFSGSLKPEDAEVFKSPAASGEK
Test: Antagonist activity at human TRPV1 assessed as inhibition of capsaicin-induced calcium influx in HEK293 cells
Assay type: functional, cell-based
Settings: not given

SMILES	IC50
Cc1[nH]c2ccc(O)cc2c1C(C)CNC(=O)c1ccc(OC(F)(F)F)cc1 (configuration not stated)	3.28 µM
COc1ccc2nccc(CCNC(=O)c3ccc(OC(F)(F)F)cc3)c2c1	> 10 µM
O=C(NCCc1ccc(Cl)c(Cl)c1)c1ccc(OC(F)(F)F)cc1	3.7 µM
CC(C)(C)c1ccc(-n2nnc(-c3ccc(C(F)(F)F)cc3)n2)cc1	> 10 µM
O=C(Nc1ccc2c(c1)CCC2)c1ccc(OC(F)(F)F)cc1	0.21 µM
O=C(NCCc1ccccc1F)c1ccc(OC(F)(F)F)cc1	3.49 µM
COc1ccc2nccc(CC(C)NC(=O)c3ccc(OC(F)(F)F)cc3)c2c1 (configuration not stated)	> 10 µM
COc1ccc2[nH]cc(CCNC(=O)c3ccc(-c4ccccc4)cc3)c2c1	0.37 µM
CC(C)(C)c1ccc2[nH]c(-c3ccc(OC(F)(F)C(F)F)cc3)nc2c1	0.477 µM
CC(C)(C)c1ccc(NC(=O)c2ccc(C(F)(F)F)cc2)cc1	0.22 µM
COc1ccc2[nH]cc(CCNC(=O)c3ccc(OC(F)(F)F)cc3)c2c1	1.31 µM
COc1ccc2[nH]cc(CCNC(=O)c3ccc(CC(C)C)cc3)c2c1	3.43 µM
O=C(Nc1ccc(I)cc1)c1ccccc1C(F)(F)F	> 10 µM
COc1ccc2[nH]cc(CCNC(=O)c3ccc(-c4ccccc4)nc3)c2c1	3.94 µM
FC(F)(F)c1ccc(-c2ncc(-c3ccc(Br)cc3)[nH]2)cc1	6 µM
O=C(NCCc1ccc(O)c2ccc(O)cc12)c1ccc(OC(F)(F)F)cc1	0.076 µM
CN(C(=O)c1ccc(OC(F)(F)F)cc1)c1ccc(C(C)(C)C)cc1	> 10 µM
COc1ccc2[nH]cc(CCNC(=O)c3ccc(OC(F)(F)C(F)F)cc3)c2c1	1.64 µM
CC(C)(C)c1ccc(NC(=O)c2ccc(SC(F)(F)F)cc2)cc1	0.253 µM
O=C(Nc1ccc(C2CCCCC2)cc1)c1ccc(OC(F)(F)F)cc1	> 10 µM
O=C(Nc1ccc(I)cc1)c1ccc(OC(F)(F)F)cc1	0.28 µM
COc1ccc2[nH]cc(CCNC(=O)c3ccc(-c4ccncc4)cc3)c2c1	> 10 µM

SMILES	IC50
CC(=O)c1ccc(C(=O)Nc2ccc(I)cc2)cc1	> 10 µM
O=C(NCCc1c(Cl)cccc1Cl)c1ccc(OC(F)(F)F)cc1	0.205 µM
COc1ccc2[nH]cc(CCNC(=O)c3ccc(OCC(F)(F)F)nc3)c2c1	3.4 µM
CC(C)(C)c1ccc(-c2nc3cc(OC(F)(F)F)ccc3[nH]2)cc1	1.42 µM
O=C(NCCC1CCCc2ccccc21)c1ccc(OC(F)(F)F)cc1 (configuration not stated)	5.4 µM
O=C(NCCN1CCCc2ccccc21)c1ccc(OC(F)(F)F)cc1	4.6 µM
O=C(Nc1ccc(I)cc1)c1ccc(C(F)(F)F)cc1	0.33 µM
CC(C)(C)c1ccc(C(N)C(=O)c2ccc(OC(F)(F)F)cc2)cc1 (configuration not stated)	> 10 µM
COc1ccc2[nH]cc(CCNC(=O)c3ccc(C(F)(F)F)cc3)c2c1	2.09 µM
Cn1cc(CCNC(=O)c2ccc(C(F)(F)F)cc2)c2ccccc21	> 10 µM
CC(C)(C)c1ccc(/C=C(\C#N)c2ccc(C(F)(F)F)cc2)cc1	> 10 µM
COc1ccc2cccc(CCNC(=O)c3ccc(OC(F)(F)F)cc3)c2c1	1.4 µM
CC(Cc1cccc2ccc(O)cc12)NC(=O)c1ccc(OC(F)(F)F)cc1 (configuration not stated)	0.081 µM
O=C(Nc1ccc(-c2ccccc2)cc1)c1ccc(OC(F)(F)F)cc1	> 10 µM
CC(CNC(=O)c1ccc(OC(F)(F)F)cc1)c1c[nH]c2ccc(O)cc12 (configuration not stated)	0.55 µM
O=C(NCCc1ccnc2ccc(O)cc12)c1ccc(OC(F)(F)F)cc1	1.23 µM
O=C(NCCc1cccc2ccncc12)c1ccc(OC(F)(F)F)cc1	6.7 µM
CC(C)(C)C1CCC(c2nc3ccc(OC(F)(F)F)cc3[nH]2)CC1 (configuration not stated)	4.97 µM
O=C(NCCc1c[nH]c2ccccc12)c1ccc(C(F)(F)F)cc1	4.23 µM
O=C(Nc1ccc(I)cc1)c1cccc(C(F)(F)F)c1	> 10 µM
COc1ccc2c(c1)N(CCNC(=O)c1ccc(OC(F)(F)F)cc1)CCC2	> 10 µM
COc1ccc2[nH]cc(CCNC(=O)c3ccc(C4CCCCC4)cc3)c2c1	1.16 µM

SMILES	IC50
CC(C)(C)c1ccc(CC(=O)c2ccc(C(F)(F)F)cc2)cc1	> 10 µM
COc1ccc2[nH]c(C)c(C(C)CNC(=O)c3ccc(OC(F)(F)F)cc3)c2c1 (configuration not stated)	5.07 µM
O=C(NCCc1ccccc1Cl)c1ccc(OC(F)(F)F)cc1	0.776 µM
COc1ccc2ccn(CCNC(=O)c3ccc(OC(F)(F)F)cc3)c2c1	3.55 µM
O=C(NCCc1c[nH]c2ccccc12)c1ccc(OC(F)(F)F)cc1	7.35 µM
O=C(Nc1ccc(I)cc1)Nc1ccc(C(F)(F)F)cc1	> 10 µM
O=C(NCCc1cccc2ccccc12)c1ccc(OC(F)(F)F)cc1	2.6 µM
CC(C)(C)c1ccc(NC(=O)c2ccc(OCC(F)(F)F)cc2)cc1	> 10 µM
O=C(NCCc1c[nH]c2ccc(O)cc12)c1ccc(OC(F)(F)F)cc1	1.73 µM
O=C(NCCc1c[nH]c2ccc(Cl)cc12)c1ccc(OC(F)(F)F)cc1	3.72 µM
COc1ccc2[nH]cc(C(C)CNC(=O)c3ccc(OC(F)(F)F)cc3)c2c1 (configuration not stated)	0.4 µM
O=C(NCCc1cccc(Cl)c1)c1ccc(OC(F)(F)F)cc1	> 10 µM and 1.93 µM
O=C(Nc1ccc(C(F)(F)F)cc1)c1ccc(I)cc1	> 10 µM
COc1ccc2c(c1)c1c(n2C)CCCC1CNC(=O)c1ccc(OC(F)(F)F)cc1 (configuration not stated)	0.49 µM
O=C(NCCC1CCCc2ccc(O)cc21)c1ccc(OC(F)(F)F)cc1 (configuration not stated)	1.35 µM
COc1ccc2c(OC)ccc(CCNC(=O)c3ccc(OC(F)(F)F)cc3)c2c1	> 10 µM
CC(Cc1ccnc2ccc(O)cc12)NC(=O)c1ccc(OC(F)(F)F)cc1 (configuration not stated)	0.74 µM
FC(F)C(F)(F)Oc1ccc(-c2nc3cc(Br)ccc3[nH]2)cc1	0.38 µM
O=C(NCCc1ccc(Cl)cc1Cl)c1ccc(OC(F)(F)F)cc1	2.56 µM
O=C(Nc1ccc(C(F)(F)F)cc1)c1ccc(OC(F)(F)F)cc1	0.22 µM
Cn1c2c(c3cc(O)ccc31)C(CNC(=O)c1ccc(OC(F)(F)F)cc1)CCC2 (configuration not stated)	0.023 µM
COc1ccc2c(c1)C(CCNC(=O)c1ccc(OC(F)(F)F)cc1)CCC2 (configuration not stated)	4.65 µM

SMILES	IC50
COc1ccc2cccc(CC(C)NC(=O)c3ccc(OC(F)(F)F)cc3)c2c1 (configuration not stated)	3.1 µM
O=C(NCCc1cccc2ccc(O)cc12)c1ccc(OC(F)(F)F)cc1	0.15 µM
COc1ccc2[nH]cc(CCNC(=O)c3ccc(OCCN(C)C)cc3)c2c1	> 10 µM
CS(=O)(=O)c1ccc(C(=O)Nc2ccc(I)cc2)cc1	> 10 µM
CC(C)(C)c1ccc(NC(=O)c2ccc(OC(F)(F)C(F)F)cc2)cc1	0.07 µM
O=C(NCC1CCCc2[nH]c3ccc(O)cc3c21)c1ccc(OC(F)(F)F)cc1 (configuration not stated)	0.2 µM
COc1ccc2[nH]cc(CCNC(=O)c3ccc(C(F)(F)F)nc3)c2c1	> 10 µM
CC(C)(C)c1ccc(NC(=O)c2ccc(OC(F)(F)F)cc2)cc1	0.12 µM
O=C(NCCn1ccc2ccccc21)c1ccc(OC(F)(F)F)cc1	7.3 µM
O=C(NCCc1c[nH]c2ccc(F)cc12)c1ccc(OC(F)(F)F)cc1	2.62 µM
O=C(NCCc1ccnc2ccccc12)c1ccc(OC(F)(F)F)cc1	> 10 µM
O=C(NCCN1CCCc2ccc(O)cc21)c1ccc(OC(F)(F)F)cc1	0.96 µM
O=C(Nc1ccc(I)cc1)c1ccc(C(=O)C(F)(F)F)cc1	0.79 µM
CC(C)(C)c1cc(NC(=O)c2ccc(OC(F)(F)F)cc2)cc(C(C)(C)C)c1	> 10 µM
CCC(c1ccccn1)c1c(Cl)c(Cl)cc2[nH]c(=O)c(=O)[nH]c12 (configuration not stated)	1.4 µM
COc1ccc2[nH]cc(CCNC(=O)c3ccc(Oc4ccccc4)cc3)c2c1	1.89 µM
CC(C)(C)c1ccc2[nH]cc(CCNC(=O)c3ccc(OC(F)(F)F)cc3)c2c1	> 10 µM
CC(C)(C)c1ccc(-c2cc3cc(C(C)(C)C)ccc3[nH]2)cc1	> 10 µM
CC(CNC(=O)c1ccc(OC(F)(F)F)cc1)c1ccc(O)c2ccc(O)cc12 (racemic)	0.014 µM

Same assay, conditions: read-out: pA2 (converted)

SMILES	Kb [µM]
COc1ccc2[nH]cc(C(C)CNC(=O)c3ccc(OC(F)(F)F)cc3)c2c1 (configuration not stated)	0.145

Test system: not listed separately
Test: Half life in po dosed rat administered through PEG400
Assay type: ADME, organism-based
Settings: in vivo

SMILES	half-life [h]
Cn1c2c(c3cc(O)ccc31)C(CNC(=O)c1ccc(OC(F)(F)F)cc1)CCC2 (configuration not stated)	2.1

Species on record: Rattus norvegicus
Test: Effect on capsaicin-induced hypothermia in rat
Assay type: functional
Settings: not given

SMILES	ED50 [mg/kg]
CC(C)(C)c1ccc(NC(=O)c2ccc(OC(F)(F)C(F)F)cc2)cc1	4.2

Test system: Mus musculus
Test: Effect on carrageenan-induced thermal hyperalgesia in mouse at 30 mg/kg, ip
Assay type: functional
Settings: route intraperitoneal

SMILES	inhibition in vivo at 30 mg/kg [%]
CC(C)(C)c1ccc(NC(=O)c2ccc(OC(F)(F)C(F)F)cc2)cc1	52
